Reference: patent US9187464B2, “TRPV4 antagonists” (GlaxoSmithKline Intellectual Property (No. 2) Limited, priority 2011, dated 2015)

Target: T1, human TRPV4 (Homo sapiens, UniProt Q9HBA0)
T1 construct: expressed in transfected cells; host or cells: HEK-293-MSR-II cells transduced with 1% BacMam virus
Assay: Ligand-gated assay (Fluo4 calcium, FLIPR; inhibition of agonist-induced activation)
Type: cell-based
Details: HEK-293-MSR-II cells transduced with BacMam human TRPV4; agonist at EC80
Method in brief: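 Agonist (EC80) response read on FLIPR as Fluo-4 (2 uM) fluorescence after 10-min room-temperature compound exposure in HBSS/HEPES pH 7.4 with 0.01% Chaps. Cells: HEK-293-MSR-II expressing human TRPV4 via BacMam; output is IC50 of inhibition.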

T1 sequence (Q9HBA0 whole entry): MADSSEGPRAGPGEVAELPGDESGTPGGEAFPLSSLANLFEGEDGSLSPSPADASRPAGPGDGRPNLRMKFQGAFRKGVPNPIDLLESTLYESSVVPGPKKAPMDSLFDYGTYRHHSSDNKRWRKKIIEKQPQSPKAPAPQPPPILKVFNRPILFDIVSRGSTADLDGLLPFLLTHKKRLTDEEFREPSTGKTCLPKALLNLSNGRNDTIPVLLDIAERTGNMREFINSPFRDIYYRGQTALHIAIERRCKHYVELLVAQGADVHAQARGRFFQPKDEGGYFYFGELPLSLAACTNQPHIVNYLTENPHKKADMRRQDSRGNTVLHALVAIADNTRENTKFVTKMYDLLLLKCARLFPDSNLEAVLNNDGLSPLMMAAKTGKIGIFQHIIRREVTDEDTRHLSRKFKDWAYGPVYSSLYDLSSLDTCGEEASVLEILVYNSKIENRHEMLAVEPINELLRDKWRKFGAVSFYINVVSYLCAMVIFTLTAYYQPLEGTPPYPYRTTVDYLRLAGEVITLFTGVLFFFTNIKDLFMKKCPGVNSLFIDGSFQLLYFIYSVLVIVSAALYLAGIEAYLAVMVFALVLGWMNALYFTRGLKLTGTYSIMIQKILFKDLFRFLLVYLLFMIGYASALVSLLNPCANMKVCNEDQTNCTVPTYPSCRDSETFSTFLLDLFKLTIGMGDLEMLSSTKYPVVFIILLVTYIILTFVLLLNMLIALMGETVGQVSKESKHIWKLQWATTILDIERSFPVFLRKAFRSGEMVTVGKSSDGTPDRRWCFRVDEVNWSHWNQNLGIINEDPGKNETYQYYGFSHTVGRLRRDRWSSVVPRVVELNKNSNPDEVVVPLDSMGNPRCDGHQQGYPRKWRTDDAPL

Row | Compound | IC50
1 | Cc1cc(Cl)cnc1N1C[C@@]2(CCC[C@](C)(Cn3cnc4ccc(C#N)cc43)C2)OC1=O [Example 121, 1-(((5S,7S)-3-(5-chloro-3-methylpyridin-2-yl)-7-methyl-2-oxo-1-oxa-3-azaspiro[4.5]decan-7-yl)methyl)-1H-benzo[d]imidazole-6-carbonitrile] | 0.0001 to 0.01 µM
2 | C[C@]1(Cn2cnc3ccc(C#N)cc32)CCC[C@@]2(CN(c3ncccc3Cl)C(=O)O2)C1 [Example 137, 1-{[(5S,7S)-3-(3-chloro-2-pyridinyl)-7-methyl-2-oxo-1-oxa-3-azaspiro[4.5]dec-7-yl]methyl}-1H-benzimidazole-6-carbonitrile] | 0.01 to 0.05 µM
3 | CC(C)(C)c1noc(C(C)(C)CN2C[C@@]3(CCC[C@H](Cn4cnc5ccc(C#N)cc54)C3)OC2=O)n1 [Example 79, 1-[((5S,7S)-3-{2-[3-(1,1-dimethylethyl)-1,2,4-oxadiazol-5-yl]-2-methylpropyl}-2-oxo-1-oxa-3-azaspiro[4.5]dec-7-yl)methyl]-1H-benzimidazole-6-carbonitrile] | 0.0001 to 0.01 µM
4 | CC(C)(C)c1ncc(N2C[C@@]3(CCC[C@H](Cn4cnc5ccc(C#N)cc54)C3)OC2=O)cn1 [Example 116, 1-(((5S,7S)-3-(2-(tert-butyl)pyrimidin-5-yl)-2-oxo-1-oxa-3-azaspiro[4.5]decan-7-yl)methyl)-1H-benzo[d]imidazole-6-carbonitrile] | 0.01 to 0.05 µM
5 | C[C@]1(Cn2cnc3ccc(C#N)cc32)CCC[C@@]2(CN(c3ncc(Cl)cc3Cl)C(=O)O2)C1 [Example 112, 1-(((7S)-3-(3,5-dichloropyridin-2-yl)-7-methyl-2-oxo-1-oxa-3-azaspiro[4.5]decan-7-yl)methyl)-1H-benzo[d]imidazole-6-carbonitrile] | 0.0001 to 0.01 µM
6 | C[C@]1(Cn2cnc3ccc(C#N)cc32)CCC[C@]2(CN(Cc3cn(-c4ccccc4)nn3)C(=O)O2)C1 [Example 105, 1-({(5R,7S)-7-methyl-2-oxo-3-[(1-phenyl-1H-1,2,3-triazol-4-yl)methyl]-1-oxa-3-azaspiro[4.5]dec-7-yl}methyl)-1H benzimidazole-6-carbonitrile] | 0.01 to 0.05 µM
7 | C[C@]1(Cn2cnc3ccc(C#N)cc32)CCC[C@@]2(CN(c3cc(C(F)(F)F)no3)C(=O)O2)C1 [Example 37, 1-({(5S,7S)-7-methyl-2-oxo-3-[3-(trifluoromethyl)-5-isoxazolyl]-1-oxa-3-azaspiro[4.5]dec-7-yl}methyl)-1H-benzimidazole-6-carbonitrile] | 0.01 to 0.05 µM
8 | C[C@]1(Cn2cnc3ccc(C#N)cc32)CCC[C@@]2(CN(c3cc(C4CC4)no3)C(=O)O2)C1 [Example 34, 1-{[(5S,7S)-3-(3-cyclopropyl-5-isoxazolyl)-7-methyl-2-oxo-1-oxa-3-azaspiro[4.5]dec-7-yl]methyl}-1H-benzimidazole-6-carbonitrile] | 0.0001 to 0.01 µM
9 | CCc1noc(C(C)(C)CN2C[C@@]3(CCC[C@H](Cn4cnc5ccc(C#N)cc54)C3)OC2=O)n1 [Example 6, 1-({(5S,7S)-3-[2-(3-Ethyl-1,2,4-oxadiazol-5-yl)-2-methylpropyl]-2-oxo-1-oxa-3-azaspiro[4.5]dec-7-yl}methyl)-1H-benzimidazole-6-carbonitrile] | 0.0001 to 0.01 µM
10 | CC(C)(O)c1ncc(N2C[C@@]3(CCC[C@](C)(Cn4cnc5ccc(C#N)cc54)C3)OC2=O)cn1 [Example 148, 1-(((5S,7S)-3-(2-(2-hydroxypropan-2-yl)pyrimidin-5-yl)-7-methyl-2-oxo-1-oxa-3-azaspiro[4.5]decan-7-yl)methyl)-1H-benzo[d]imidazole-6-carbonitrile] | 0.01 to 0.05 µM
11 | COc1ccncc1N1C[C@@]2(CCC[C@](C)(Cn3cnc4ccc(C#N)cc43)C2)OC1=O [Example 149, 1-(((5S,7S)-3-(4-methoxypyridin-3-yl)-7-methyl-2-oxo-1-oxa-3-azaspiro[4.5]decan-7-yl)methyl)-1H-benzo[d]imidazole-6-carbonitrile] | 0.05 to 0.5 µM
12 | CCOc1ccc(CN2CC3(CCC[C@](C)(Cn4cnc5ccc(C#N)cc54)C3)OC2=O)nc1 (stereo in doubt) [Example 157, 1-(((5S,7S)-3-((5-ethoxypyridin-2-yl)methyl)-7-methyl-2-oxo-1-oxa-3-azaspiro[4.5]decan-7-yl)methyl)-1H-benzo[d]imidazole-6-carbonitrile] | 0.0001 to 0.01 µM
